Measured values published in the NIST ThermoML archive (doi:10.1016/j.tca.2006.01.020).

Assay: molar heat capacity at constant pressure
Conditions: 101.33 kPa, Crystal, Small (less than 1 g) adiabatic calorimetry

[Ba+2].[O-2].[O-2].[O-2].[Zr+4] [barium zirconium(IV) oxide]
Conditions | molar heat capacity at constant pressure [J/K/mol]
1.659 K | 0.00346
1.662 K | 0.00357
1.664 K | 0.00348
1.666 K | 0.00351
1.671 K | 0.00353
1.675 K | 0.00351
1.677 K | 0.00363
1.683 K | 0.00349
1.689 K | 0.00342
1.699 K | 0.00335
1.722 K | 0.00326
1.735 K | 0.00341
1.744 K | 0.00345
1.763 K | 0.00333
2.098 K | 0.00292
2.107 K | 0.00345
2.124 K | 0.00373
2.15 K | 0.0036
2.163 K | 0.00346
2.173 K | 0.00343
2.185 K | 0.00389
2.198 K | 0.00355
2.209 K | 0.00288
2.216 K | 0.00344
2.228 K | 0.00346
2.261 K | 0.00391
2.281 K | 0.0035
2.325 K | 0.00371
2.372 K | 0.0038
2.389 K | 0.00365
2.42 K | 0.00384
2.515 K | 0.00414
2.651 K | 0.00484
2.824 K | 0.00516
2.831 K | 0.00564
2.919 K | 0.00559
2.952 K | 0.00633
3.106 K | 0.00618
3.116 K | 0.00718
3.242 K | 0.00714
3.366 K | 0.00794
3.538 K | 0.00865
3.656 K | 0.00903
3.873 K | 0.00964
3.987 K | 0.0104
4.096 K | 0.0108
4.199 K | 0.0112
4.473 K | 0.0129
4.617 K | 0.0156
4.702 K | 0.0156
4.777 K | 0.0158
4.851 K | 0.0176
4.929 K | 0.0183
5.008 K | 0.02
5.086 K | 0.019
5.165 K | 0.021
5.246 K | 0.0226
5.329 K | 0.0234
5.41 K | 0.0243
5.489 K | 0.0216
5.545 K | 0.0289
5.64 K | 0.0269
5.717 K | 0.0288
5.79 K | 0.0301
5.87 K | 0.0306
5.93 K | 0.0325
6.02 K | 0.0336
6.08 K | 0.0338
6.19 K | 0.0357
6.27 K | 0.0366
6.36 K | 0.0388
6.45 K | 0.0407
6.54 K | 0.0424
6.62 K | 0.044
6.72 K | 0.0458
6.8 K | 0.0494
6.9 K | 0.0501
6.98 K | 0.0511
7.08 K | 0.0539
7.16 K | 0.0547
7.26 K | 0.0547
7.36 K | 0.0593
7.47 K | 0.0629
7.56 K | 0.0638
7.67 K | 0.0662
7.77 K | 0.07
7.89 K | 0.0767
7.98 K | 0.076
8.1 K | 0.0841
8.2 K | 0.083
8.32 K | 0.091
8.43 K | 0.0913
8.55 K | 0.101
8.67 K | 0.102
8.8 K | 0.112
8.91 K | 0.111
9.05 K | 0.127
9.12 K | 0.121
9.26 K | 0.138
9.33 K | 0.13
9.47 K | 0.148
9.6 K | 0.144
9.75 K | 0.163
9.88 K | 0.159
10 K | 0.168
10.01 K | 0.17
10.18 K | 0.188
10.31 K | 0.186
10.47 K | 0.208
10.6 K | 0.205
10.76 K | 0.228
10.94 K | 0.235
11.09 K | 0.245
11.27 K | 0.27
11.45 K | 0.278
11.62 K | 0.29
11.8 K | 0.317
12 K | 0.341
12.15 K | 0.34
12.35 K | 0.385
12.54 K | 0.383
12.72 K | 0.416
12.92 K | 0.449
13.12 K | 0.466
13.32 K | 0.5
13.53 K | 0.54
13.73 K | 0.561
13.93 K | 0.599
14.13 K | 0.628
14.34 K | 0.692
14.54 K | 0.702
14.75 K | 0.772
14.97 K | 0.803
15.18 K | 0.858
15.39 K | 0.892
15.59 K | 0.951
15.81 K | 1.02
16.03 K | 1.06
16.24 K | 1.13
16.46 K | 1.2
16.68 K | 1.25
16.9 K | 1.32
17.12 K | 1.4
17.34 K | 1.46
17.56 K | 1.54
17.79 K | 1.63
18.03 K | 1.72
18.26 K | 1.77
18.47 K | 1.87
18.69 K | 1.97
18.92 K | 2.07
19.15 K | 2.15
19.38 K | 2.27
19.62 K | 2.37
19.86 K | 2.44
20 K | 2.564
20.07 K | 2.59
20.32 K | 2.69
20.56 K | 2.75
20.77 K | 2.91
21 K | 3.03
21.25 K | 3.1
21.47 K | 3.28
21.71 K | 3.37
21.95 K | 3.48
22.17 K | 3.66
22.41 K | 3.78
22.67 K | 3.87
22.9 K | 3.98
23.11 K | 4.17
23.34 K | 4.32
23.59 K | 4.41
23.83 K | 4.56
24.06 K | 4.76
24.31 K | 4.87
24.56 K | 4.97
24.78 K | 5.12
25 K | 5.34
25.24 K | 5.49
25.5 K | 5.6
25.74 K | 5.74
25.96 K | 5.93
26.19 K | 6.12
26.44 K | 6.29
26.7 K | 6.36
26.94 K | 6.51
27.15 K | 6.76
27.39 K | 6.91
27.68 K | 6.91
27.72 K | 7.04
28.07 K | 7.4
28.32 K | 7.57
28.59 K | 7.63
28.82 K | 7.79
29.03 K | 8.03
29.26 K | 8.25
30 K | 8.651
30.07 K | 8.73
30.34 K | 8.73
30.45 K | 8.93
31.03 K | 9.36
31.64 K | 9.8
32.28 K | 10.4
32.94 K | 10.9
33.63 K | 11.4
34.33 K | 11.9
35.05 K | 12.4
35.78 K | 13
36.53 K | 13.5
37.28 K | 14.1
38.03 K | 14.7
38.8 K | 15.3
39.58 K | 15.9
40 K | 16.19
40.37 K | 16.4
41.18 K | 17.1
42 K | 17.7
42.84 K | 18.3
43.69 K | 19
44.56 K | 19.6
45.45 K | 20.2
46.36 K | 21
47.29 K | 21.6
48.24 K | 22.3
49.21 K | 23
50 K | 23.59
50.25 K | 23.7
51.26 K | 24.4
52.27 K | 25.2
53.27 K | 25.9
54.27 K | 26.6
55.27 K | 27.3
56.27 K | 28.1
57.27 K | 28.8
58.26 K | 29.5
59.25 K | 30.2
60 K | 30.79
60.25 K | 31
61.24 K | 31.6
62.3 K | 32.5
63.25 K | 33.2
64.23 K | 33.8
65.21 K | 34.5
66.2 K | 35.2
67.19 K | 35.9
68.19 K | 36.2
69.19 K | 36.9
70 K | 37.33
71.18 K | 38.3
72.18 K | 38.8
73.19 K | 39.5
74.19 K | 40
75.18 K | 40.7
76.18 K | 41.3
77.18 K | 42
78.18 K | 42.5
79.18 K | 43.1
80 K | 43.22
80.18 K | 43.6
81.18 K | 44.3
82.18 K | 44.7
83.18 K | 45.1
84.17 K | 45.7
85.17 K | 46.3
86.17 K | 46.7
87.17 K | 47.2
87.74 K | 46.8
89.5 K | 48.5
90 K | 48.58
91.29 K | 49.3
93.12 K | 50.1
94.99 K | 51.3
96.9 K | 52.1
98.84 K | 52.7
100 K | 53.49
100.82 K | 53.7
102.81 K | 54.6
104.8 K | 55.6
106.79 K | 56.6
108.78 K | 57.5
110.77 K | 58.4
112.76 K | 59.4
114.75 K | 60.3
116.74 K | 61.2
118.72 K | 62
120 K | 62.3
120.69 K | 62.8
122.66 K | 63.7
124.65 K | 64.5
126.64 K | 65.3
128.63 K | 66.1
130.62 K | 66.8
132.27 K | 67.5
133.6 K | 68
134.94 K | 68.5
136.28 K | 69
137.64 K | 69.5
139.02 K | 70
140 K | 70.04
140.41 K | 70.1
141.81 K | 70.6
143.23 K | 71.1
144.66 K | 71.7
146.11 K | 72.2
147.57 K | 72.7
149.04 K | 73.2
150.53 K | 73.9
152.03 K | 74.3
153.55 K | 74.9
155.09 K | 75.3
156.64 K | 75.9
158.2 K | 76.3
159.79 K | 76.9
160 K | 76.91
161.38 K | 77.3
163 K | 77.9
164.63 K | 78.4
166.26 K | 78.9
167.93 K | 79.4
169.61 K | 79.9
171.3 K | 80.4
173.01 K | 81
174.74 K | 81.4
176.49 K | 82
178.25 K | 82.3
180 K | 82.99
180.03 K | 83
181.83 K | 83.5
183.65 K | 84.1
185.48 K | 84.7
187.34 K | 85.1
189.21 K | 85.5
191.1 K | 86.2
193 K | 86.7
194.93 K | 87
196.88 K | 87.9
198.84 K | 88
200 K | 88.29
200.83 K | 88.7
202.81 K | 89
204.8 K | 89.7
206.78 K | 90.5
208.76 K | 90.8
210.75 K | 91.3
212.73 K | 92.4
214.71 K | 91.7
216.7 K | 92.1
218.69 K | 92.5
220 K | 92.87
220.66 K | 93
222.65 K | 93.4
224.62 K | 94
226.6 K | 94.3
228.58 K | 94.9
230.56 K | 95.7
232.54 K | 95.8
234.52 K | 95.9
236.49 K | 96.5
238.47 K | 96.6
240 K | 96.81
240.44 K | 97.1
242.41 K | 97.6
244.39 K | 97.6
246.36 K | 98.4
248.33 K | 98.2
250.31 K | 98.9
252.27 K | 99.4
254.25 K | 99.7
256.22 K | 99.7
258.19 K | 99.8
260 K | 100.3
260.16 K | 100.3
262.12 K | 100.7
264.08 K | 100.7
266.04 K | 101.8
268.01 K | 102.2
269.99 K | 101.6
271.94 K | 102.6
273.9 K | 103
275.86 K | 103.2
277.83 K | 103.3
279.79 K | 103.8
280 K | 103.7
281.74 K | 104.6
283.71 K | 105.2
285.68 K | 105
287.63 K | 105
289.59 K | 105.2
291.54 K | 107
293.51 K | 106.2
295.49 K | 107.4
297.42 K | 106.6
298.15 K | 107
299.39 K | 106.6
300 K | 107.4
301.32 K | 107.9
